Legend:
macrophages = conditions: reference 41; cited from earlier work
[1] = test system: thioglycolate-elicited macrophages, thymocytes and X63-Ag8.653 myeloma cells; assay: Cell specificity of [125I]acetyl-LDL binding; set-up: species or system mouse
Experimental: Thiglycolate-elicited macrophages, thymocytes and X63-Ag8.653 myeloma cells were incubated with [^125 I] acetyl-LDL at 4 degrees centigrade in six cell tissue culture plates at […]. After 2 hours, the cells were washed five times, then lysed in 0.05% Triton X-100 and the amount of [^125 I] acetyl-LDL bound was determined.

[2] = test system: thioglycolate-elicited macrophages; assay: Fluorescent binding and uptake of acetyl-LDL:MTP-PE-DiI by macrophages; assay type: cell-based, mouse; conditions: 30-fold excess of competitor; 30 μg acetyl-LDL:MTP-PE-DiI; 37°
Experimental: The binding and uptake of acetyl-LDL:MTP-PE-DiI was carried out at 37 degrees centigrade and the fluorescence intensity of cell-associated DiI recorded. The μg acetyl-LDL:MTP-PE-DiI bound was determined by knowing the quantity of DiI associated with the complex (1.34±0.76 nmol DiI/mg acetyl-LDL protein). The data points represent an average of three separate experiments.
Insert: Uptake of 30 μg of acetyl-LDL:MTP-PE-DiI and in the presence of a 30-fold excess of acetyl-LDL (a) a 30-fold excess of LDL (b) or a 30-fold excess of liposomes (c).

[3] = test system: P815 mastocytoma target cells; assay: Macrophage-mediated cytotoxicity ([3H]thymidine release) after treating thioglycolate-elicited macrophages
Experimental: Macrophage-mediated cytotoxicity: Cytotoxicity was determined using a [3H] thymidine release assay. Thioglycolate-elicited macrophages were plated in 96-well flat-bottom tissue culture plates (Costar, Cambridge, Mass.) at 4×10^5 and 1×10^4 macrophage per well. […] After 24 hours, the plates were washed three times and [3H] thymidine labelled P815 tumor target cells (1×10^4) were added to each well. The total assay volume was 250 μl in DMEM with 10% FCS and the plates were incubated an additional 24 hours. After incubation, the microplates were centrifuged for 2 minutes at 250×g and a 125 μl aliquot of supernatant was removed and counted by liquid […]. Total incorporation of radioactivity was determined by adding 1×10^4 cells to 2 ml of Beckman Redissolve scintillation cocktail.
The percent specific release was calculated. [formula]
All samples were plated in triplicate and the data presented as the mean ±S.D. of triplicates.

[4] = test system: B16F10 melanoma target cells; assay: Macrophage-mediated cytostasis ([3H]thymidine incorporation) after treating thioglycolate-elicited macrophages; conditions: for % Cytostasis: effector:target 10:1
Experimental: ^(2) Thioglycolate-elicited macrophages were treated with different
concentrations of the complex for 24 hours, unbound complex was washed
away and B16F10 melanoma cells were added. After 24 hours, the cultures
were pulsed with [3H]thymidine and harvested after 18 hours
(effector:target ratio, 10:1).
Macrophage-mediated Cytostasis: Cytostatic activity was determined using a (^3 H) Thymidine (New England Nuclear Corp) incorporation technique (64). […] After 24 hours, the cells were washed twice with warm DMEM and cultured in DMEM (10% FCS), with 1×10^5 B16F10 melanoma target cells for 24 hours. The cells were then pulsed for 24 hours with 1 uCi of (^3 H) thymidine. Cells were harvested using a MASH cell harvester and assayed with a liquid scintillation counter. The results were expressed as a percent inhibition of (^3 H) thymidine incorporation into the B16F10 target cells (such as % cytostasis). [formula]

Substance | rate of uptake and degradation by macrophages relative to LDL (macrophages) | binding to myeloma cell line (B-lymphocyte) and thymocytes (T-lymphocytes) [1] | competition with uptake of DiI-labeled acetyl-LDL:MTP-PE complex [2] | Percent Cytotoxicity ([3]; effector to target cell ratio 1:1, same amounts per well) [%] | Percent Cytotoxicity ([3]; effector to target cell ratio 5:1, same amounts per well) [%] | Percent Cytotoxicity ([3]; effector to target cell ratio 10:1, same amounts per well) [%] | Percent Cytotoxicity ([3]; effector to target cell ratio 20:1, same amounts per well) [%] | Percent Cytotoxicity ([3]; effector to target cell ratio 40:1, per well: complex 18.0 ug protein containing 3.6 ug MTP-PE, free MTP-PE 3.6 ug, acetyl-LDL 18.0 ug protein) [%] | % Cytostasis ([4]; acetyl-LDL 6.25 μg protein/ml (MTP-PE 0.62 μg/ml in complex, 0.0 alone), 24 hours) [%] | % Cytostasis (Complex + Excess Liposomes) ([4]; acetyl-LDL 6.25 μg protein/ml (MTP-PE 0.62 or 0.0 μg/ml) in presence of excess liposomes 1.2 mg lipid/ml) [%] | % Cytostasis ([4]; acetyl-LDL 12.5 μg protein/ml (MTP-PE 1.3 μg/ml in complex, 0.0 alone), 24 hours) [%] | % Cytostasis (Complex + Excess Liposomes) ([4]; acetyl-LDL 12.5 μg protein/ml (MTP-PE 1.3 or 0.0 μg/ml) in presence of excess liposomes 1.2 mg lipid/ml) [%] | % Cytostasis ([4]; acetyl-LDL 25 μg protein/ml (MTP-PE 2.5 μg/ml in complex, 0.0 alone), 24 hours) [%] | % Cytostasis (Complex + Excess Liposomes) ([4]; acetyl-LDL 25 μg protein/ml (MTP-PE 2.5 or 0.0 μg/ml) in presence of excess liposomes 1.2 mg lipid/ml) [%] | % Cytostasis ([4]; acetyl-LDL 50 μg protein/ml (MTP-PE 5.0 μg/ml in complex, 0.0 alone), 24 hours) [%] | % Cytostasis (Complex + Excess Liposomes) ([4]; acetyl-LDL 50 μg protein/ml (MTP-PE 5.0 or 0.0 μg/ml) in presence of excess liposomes 1.2 mg lipid/ml) [%] | % Cytostasis ([4]; acetyl-LDL 100 μg protein/ml (MTP-PE 9.9 μg/ml in complex, 0.0 for acetyl-LDL alone), macrophages treated 24 hours) [%] | % Cytostasis (Complex + Excess Liposomes) ([4]; acetyl-LDL 100 μg protein/ml (MTP-PE 9.9 or 0.0 μg/ml) in presence of excess liposomes 1.2 mg lipid/ml) [%]
Acetyl-LDL: human plasma LDL exhaustively acetylated with acetic anhydride at apoprotein B lysine residues; the carrier alone | approximately twenty-fold greater | only low levels of binding | effective competitive inhibitor | 0.5 ± 1 | 4.5 ± 4 | 4 ± 2 | 6 ± 2 | 3 ± 3 | ≤ 5 | ≤ 5 | < 5 | ≤ 5 | 25 ± 12 | ≤ 5 | < 5 | ≤ 5 | < 5 | ≤ 5
LDL: native unmodified human plasma low density lipoprotein |  |  | negligible to moderate competition |  |  |  |  |  |  |  |  |  |  |  |  |  |  | 

Source: US5084441A, “Acetylated low density lipoproteins: a delivery system to phagocytic cells for stimulating immunologic response and host resistance” (priority 1988, dated 1992)
